The subject of experiment [1] is Ras-transformed cells. As to conditions: Aharonson et al., 1998; cited from earlier work.
Experiment [2] concerns the target T1, membrane galectin-1 (Rattus norvegicus, UniProt P11762).
T1 construct: endogenous in cells; host or cells: EJ cells (H-Ras (12V)-transformed Rat-1 fibroblasts)
Nature of the experiment: Membrane galectin-1 in intact EJ cells treated with FTS or GTS (Western blot). Type of experiment: cell-based. To be noted: for reduction in the amount of membrane galectin-1: intact EJ cells, without cross-linking, Western blot (FIG. 3). The text has this:
FIG. 3 is a photograph of a Western blot of galectin-1 isolated from cells in the presence of a control, FTS and GTS.
Yet another aspect of the present invention is directed to a method of determining efficacious dosages of a Ras antagonist that disrupts Ras-anchor protein binding. In general, the method entails contacting cells with the antagonist in vivo or in vitro, collecting the cells following the contacting, isolating cell membranes from the collected cells, measuring decrease in anchor protein concentration per unit of cell membrane protein, and correlating the decrease with dosage of the Ras antagonist. In a preferred embodiment, a method for measuring the biological action of FTS and its analogs in vivo and in vitro is based on the suppression of the immunoassayable galectin-1 in H-Ras-transformed tumors. The basis of this assay depends upon the dose dependent loss of galectin-1 from cell membranes by FTS. Under maximal stimulation of tumor cells with FTS, 90% of galectin-1 is lost from membrane. This allows for an excellent dose response. A variation of this assay uses drug induced suppression of the anchor proteins in normal human lymphocytes isolated from patients being treated with FTS in phase 1 clinical trials. A dose of FTS or any other Ras antagonist that maximally suppresses galectin-1 (or the respective anchor protein of the antagonist) should be a dose that produces effects on other biological endpoints in vivo. When such assay is in mice and humans, therapeutically efficacious doses of Ras antagonists for humans can be determined.
(§1) In agreement with previous results [Kloog et al., 1999] FTS, but not GTS, reduced the amount of membrane Ras in the cells by 50-60% (data not shown). Similarly, FTS (but not GTS) induced a 90% reduction in the amount of membrane galectin-1 (FIG. 3). Thus, the magnitude of the FTS-induced galectin-1 decrease was much greater than that of Ras.

Experiment [3] addresses T2, membrane Ras (Homo sapiens, UniProt P01112, G12V).
T2 construct: expressed in transfected cells; host or cells: Rat-1 fibroblasts stably transformed with H-Ras (12V) (EJ cells)
Description: Membrane Ras in intact EJ cells treated with FTS or GTS. Type of experiment: cell-based, rat. To be noted: without cross-linking, data not shown.
From the text: as §1

For experiment [4], the target named is T3, Ras-IDRA complex (34-43 kDa) (Rattus norvegicus, UniProt P11762).
T3 construct: expressed in transfected cells; host or cells: EJ cells (Rat-1 transformed with H-Ras (12V)) and their membranes; galectin-1 is endogenous
Description: Chemical cross-linking (DSS/DSP) of Ras-IDRA complexes in EJ cells and membranes, SDS-PAGE, Ras Ab immunoblot, purification. It is filed as cell-based. Here is the method: FIG. 1 is a photograph of an electrophoretic gel illustrating use of Ras antibodies and chemical cross-linkers for identification of Ras IDRA complexes that are sensitive to the Ras inhibitor, FTS. Ras antibodies (Ab) identify Ras and Ras-IDRA complex in EJ cell membranes. Membranes corresponding to 10^6 control or FTS (50 μM)-treated EJ cells were incubated in 50 mM sodium bicarbonate buffer, pH 8.5, containing protease inhibitors and 2% DMSO (no cross-linker controls) or the indicated concentrations of the cross-linkers DSS or DSP. Samples of Triton X-100 extracts of the membranes were subjected to SDS-PAGE under non-reducing conditions followed by Western immunoblotting with Ras Ab. Open arrow corresponds to Ras (21 kDa) and closed arrow corresponds to the major Ras-putative IDRA band (34-43 kDa) detected in the blot under these conditions. This band is not detected in the blots of the non cross-linked samples or in the blots of the cross-linked samples of FTS-treated cells.
We used chemical cross-linkers in an attempt to identify the rapidly dissociating complexes of Ras and Ras-interacting proteins. […] When membranes of control and FTS-treated cells were exposed to these cross-linkers solubilized and fractionated on SDS-containing gels, Ras-immunoreactive bands were clearly detected at 34-43 kDa, 50 kDa, and 70 kDa (FIG. 1). […]
In general terms: Immunoblotting shows a protein as a band on a membrane.

For experiment [5], the system named is H-Ras-transformed Rat-I (EJ) fibroblasts. To be noted: cited from earlier work.
The subject of experiment [6] is fibroblasts transformed by ErbB2. To be noted: ErbB2 acting upstream of Ras; cited from earlier work.
For experiment [7], the system named is cells transformed by v-Raf. To be noted: v-Raf acts independently of Ras; cited from earlier work.
Experiment [8] concerns H-Ras. To be noted: cited from earlier work.
Experiment [9] concerns Ras methylation. To be noted: in vitro; cited from earlier work.
Experiment [10] has as its system cells transformed with the farnesylated but unmethylated K-Ras 4B (12V) CVYL isoform. As to conditions: cited from earlier work.
In experiment [11] the test system is K-Ras 4B (12V), N-Ras (13V) and N-Ras (61L). To be noted: membranes of rodent fibroblasts and of human tumor cell lines; cited from earlier work.
Experiment [12] concerns prenylated Gβγ-subunits of heterotriimeric G-proteins. To be noted: Rat-1 cell membranes; cited from earlier work.
Experiment [13] concerns myr-Ras. As to conditions: myr-Ras-transformed cells; cited from earlier work.
Experiment [14] has as its system prenylated Rac-1 and Rho A. To be noted: human melanoma cells; cited from earlier work.
Experiment [15] deals with H-Ras (Homo sapiens, UniProt P01112, G12V). To be noted: intact cells in vitro; dislodging H-Ras from its anchorage domains; cited from earlier work.

Entries after “also recorded” stand apart in the source; their conditions may differ.

T3 sequence (P11762 2-135 limits assumed, one chain of several): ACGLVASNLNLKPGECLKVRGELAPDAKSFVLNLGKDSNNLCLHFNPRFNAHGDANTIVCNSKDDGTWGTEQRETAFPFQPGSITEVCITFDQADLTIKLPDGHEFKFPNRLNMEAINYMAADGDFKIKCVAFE
T1 sequence (P11762 whole entry): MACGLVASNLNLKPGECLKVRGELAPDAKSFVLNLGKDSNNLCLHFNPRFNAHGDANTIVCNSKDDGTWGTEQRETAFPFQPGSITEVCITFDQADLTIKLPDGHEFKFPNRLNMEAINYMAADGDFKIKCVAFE

As for `CC(C)=CCC/C(C)=C/CC/C(C)=C/CC/C(C)=C/CSc1ccccc1C(=O)O` [GGTS], in experiment [1], the “inhibition of growth of Ras-transformed cells” value is on record as “inhibited growth”.
Turning to `COC(=O)c1ccccc1SCC=C(C)CCC=C(C)CCC=C(C)C` [carboxy methylester analogue], the “inhibition of growth of Ras-transformed cells” value in experiment [1] is “not”.
Take `CC(C)=CCC/C(C)=C/CC/C(C)=C/CSc1ccccc1C(=O)O` [FTS, S-trans, trans-farnesylthiosalicylic acid]: the “levels of endogenous galectin-1 in EJ cells” value in experiment [2] (EJ cells, in parallel with the decrease in Ras) is given as “decreased the levels”. Also, the “reduction in the amount of membrane galectin-1” value in experiment [2] was determined as 90%. In experiment [3], the “reduction of the amount of membrane Ras in the cells” value is 50-60%. The “34-43 kDa Ras-putative IDRA cross-linked band” value in experiment [4] (FTS (50 μM)-treated EJ cells or membranes, DSS or DSP, Ras Ab blot (FIG. 1)) is “not detected; also recorded: not present”. The “amount of galectin-1 purified from cross-linked complexes of treated EJ cells” value in experiment [4] (FTS-treated EJ cells, Western blot (FIG. 2)) is reported as “reduces the amounts of anchor; also recorded: very low”. The growth inhibition result in experiment [5] (H-Ras-transformed Rat-I (EJ) fibroblasts) is given as “potent growth inhibitor”. The effective concentration range in experiment [5] (affected specifically the membrane-bound H-Ras protein in these cells) is 5 to 50 µM. In addition, the “inhibition of growth of Ras-transformed cells” value in experiment [1] is “inhibited growth”. Also, the “inhibition of growth of ErbB2-transformed fibroblasts” value in [6] is listed as “inhibits the growth”. Besides, the “inhibition of growth of v-Raf-transformed cells” value in experiment [7] is “not the growth”. Besides, the “inhibition of farnesylation of H-Ras” value in experiment [8] is listed as “did not inhibit”. Besides, in [9], the “inhibition of Ras methylation” value is on record as “inhibit”. The “inhibition of growth of K-Ras 4B (12V) CVYL-transformed cells” value in experiment [10] was “inhibits growth”. In addition, in experiment [11], the “dislodging of K-Ras 4B (12V), N-Ras (13V) and N-Ras (61L) from membranes” value is “dislodges”. In experiment [12], the “dislodging of prenylated Gβγ-subunits from membranes” value is “did not dislodge”. In experiment [13], the “effect on myr-Ras” value was “no effect”. In addition, in [14], the “reduction of the amounts of prenylated Rac-1 and Rho A” value is “did not reduce”. For the same compound, the “total amount of cellular Ras” value in experiment [15] was “reduced the total amount of cellular Ras”.
Take `CC(C)=CCC/C(C)=C/CSc1ccccc1C(=O)O` [GTS]: the “reduction in the amount of membrane galectin-1” value in [2] was “no effect and not”. Also, the “reduction of the amount of membrane Ras in the cells” value in experiment [3] is on record as “not”. Also, in [1], the “inhibition of growth of Ras-transformed cells” value was “not”.
